According to publication PMC5418574, “Facile access to potent antiviral quinazoline heterocycles with fluorescence properties via merging metal-free domino reactions” (Nature Communications, 2017):
Values joined by “and” are separate entries in the source; they are usually repeats but may differ in a detail not shown here. Identical values can stand only once. Like-named read-outs stand apart in the source and are kept apart here.

How the values were obtained:
HCMV AD169-GFP = experiment: HCMV GFP-based replication assay (automated GFP fluorometry); format: cell-based, human cytomegalovirus
Method: The measurement of antiviral activity was based on automated fluorometry using a green fluorescent protein (GFP)-expressing, recombinant HCMV (excitation 485 nm, emission 535 nm; see Supplementary Note 2, Supplementary Data 1 and Supplementary Fig. 4 for dose–response curves).
HCMV GFP‐based replication assay and cell proliferation assay. The replication of human cytomegalovirus (HCMV) was determined by an established HCMV GFP-based replication assay as carried out over a duration of approx. seven days (multi-round infection) using cultures of primary human foreskin fibroblasts (HFFs). HFFs were cultivated in 12-well plates for the infection with a GFP-expressing recombinant human cytomegalovirus (HCMV AD169-GFP) and a signal quantitation using automated GFP fluorometry as described before.2-4 All data represent mean values of determinations in quadruplicate (HCMV infections performed in duplicate, GFP measurements of total cell lysates performed in duplicate). Processing and evaluation of data was performed by the use of Excel (means and standard deviations, see Supplementary Figure 4 and Supplementary Data 1). […]

[1] = trypan blue exclusion cytotoxicity assay; format: cell-based; conditions: human, primary HFFs (human foreskin fibroblasts), 0.2-100 μM for 3 days, n=6 (artesunic acid n=3)
Method: (§1) In addition, EC50 values were confirmed using non-GFP-expressing HCMV (strain AD169) by a classical plaque formation assay on HFFs (n=4), providing data consistent with the GFP-based data shown in Table 1, that is, compound 7h, 7.3±0.7 μM; compound 8, 0.3±0.0 μM; compound 9, 0.3±0.1 μM. Moreover, antiviral activity was clearly separated from putative cytotoxic effects because of the results obtained with a standard trypan blue exclusion assay. […] Consistent with these findings are results from a MTS-based cell proliferation assay, showing moderate or no antiproliferative effects on HFFs for all analysed compounds in concentrations up to 30 μM (see Supplementary Fig. 5 and Supplementary Methods). Thus, the new quinazolines and hybrid compounds can be regarded as selective, which is one of the most important aspects in drug design.
Cytotoxicity and Cell Proliferation Assays
Assays measuring distinct parameters of cytotoxicity and/or cell proliferation were performed as described earlier.7, 8 In brief, a trypan blue exclusion assay was performed with cultured cells seeded in 24-well plates and incubated with increasing concentrations of antiviral compounds (range of 0.2 μM to […]
before the percentage of viable cells was determined by microscopic counting (determination at least in triplicates). The cell proliferation assay (CellTiter 96 AQueous One Solution cell proliferation assay; Promega) was performed in a 96-well plate format after a 3-day treatment with compounds under standard conditions of measurement as described by the manufacturer. […]

primary HFFs = experiment: confocal laser-scanning microscopy of cellular uptake of fluorescent compounds; format: cell-based, human; conditions: 1–10 μM, uninfected or HCMV-infected, 20 h incubation
Method: Figure 7 Microscopy-based visualization of cellular uptake of fluorescent quinazoline compounds. (a) Artesunic acid–quinazoline hybrids 8 and 9. (b–d) Compounds 7h, 7g and 9 were analysed for properties of fluorescence imaging using confocal laser-scanning microscopy. HFFs were cultivated in six-well plates on cover slips and were either directly incubated with compounds by addition to the culture media for 20 h (c) or were added after HCMV infection (b,d; compound addition at 50 h post infection, fixation and analysis of cells 20 h later; scale bar, 10 μm). The chosen concentrations were 10 μM for compounds 7h, 7g and 9, or 1 μM for compound 9 in panels 4, 9 (b), panels 5, 10 (c) and panels 6–10 (d), referring to the compounds' EC50 values of anti-HCMV activity (see Table 1). The depicted images are representative for three independent experiments. Lack of mycoplasm contamination was verified by routine 4,6-diamidino-2-phenylindole staining. General procedures of cell fixation, indirect immunofluorescence staining of proteins (d) and microscopic analysis have been described elsewhere.
When analysing primary HFFs, the fluorescent compounds 7g, 7h and 9 could nicely be depicted both in extracellular (transparent arrows) and intracellular localizations (filled arrows; Fig. 7b,c). […] A nonfluorescent artemisinin-derived control compound (Fig. 7c, panels 2 and 7; see also Supplementary Fig. 6), the DMSO panels (solvent controls) as well as the inspection of different excitation wavelengths of the confocal laser-scanning microscopy confirmed the specificity of signals and a lack of unwarranted cross-fluorescence. […] An indirect immunofluorescence counterstaining of viral and cellular proteins[36][37] led to the detection of nuclear markers, that is, the viral protein kinase pUL97 and cellular lamins type A/C (Fig. 7d, panels 4, 9, 14 or 5, 10, 15, respectively), in the context of extracellular and intracellular fluorescence signals of compounds 7h and 9 (Fig. 7d, panels 1–5 or 6–15, respectively). […]

[2] = test system: non-GFP-expressing HCMV (strain AD169); experiment: classical plaque formation assay on HFFs; format: cell-based, human cytomegalovirus; conditions: Human betaherpesvirus 5, AD169, read-out: EC50, plaque formation assay
Method: as §1

[3] = Human betaherpesvirus 5, AD169, read-out: HCMV EC50
[4] = Human betaherpesvirus 5, AD169, read-out: EC50 (sheet Curves)

Structure (SMILES)	EC50 (HCMV AD169-GFP; [3]) [µM]	CC50 at 3 days [1] [µM]	GFP signal, % of Inf./DMSO, MW (mean) (HCMV AD169-GFP; 0.12 µM) [%]	GFP signal, % of Inf./DMSO, single determination (raw data) (HCMV AD169-GFP; 0.12 µM)	GFP signal, % of Inf./DMSO, MW (mean) (HCMV AD169-GFP; 0.37 µM) [%]	GFP signal, % of Inf./DMSO, single determination (raw data) (HCMV AD169-GFP; 0.37 µM)	GFP signal, % of Inf./DMSO, MW (mean) (HCMV AD169-GFP; 1.1 µM) [%]	GFP signal, % of Inf./DMSO, single determination (raw data) (HCMV AD169-GFP; 1.1 µM)	GFP signal, % of Inf./DMSO, MW (mean) (HCMV AD169-GFP; 3.3 µM) [%]	GFP signal, % of Inf./DMSO, single determination (raw data) (HCMV AD169-GFP; 3.3 µM)	GFP signal, % of Inf./DMSO, MW (mean) (HCMV AD169-GFP; 10 µM) [%]	cellular uptake (intracellular fluorescence) (primary HFFs)	GFP signal, % of Inf./DMSO, single determination (raw data) (HCMV AD169-GFP; 10 µM)	EC50 [2] [µM]	GFP signal, % of Inf./DMSO, MW (mean) (HCMV AD169-GFP; 0.01 µM) [%]	GFP signal, % of Inf./DMSO, single determination (raw data) (HCMV AD169-GFP; 0.01 µM)	GFP signal, % of Inf./DMSO, MW (mean) (HCMV AD169-GFP; 0.04 µM) [%]	GFP signal, % of Inf./DMSO, single determination (raw data) (HCMV AD169-GFP; 0.04 µM)	EC50 (HCMV AD169-GFP; [4]) [µM]
C[C@@H]1CC[C@H]2[C@@H](C)C(=O)O[C@@H]3O[C@@]4(C)CC[C@@H]1[C@]32OO4 [Artemisinin, reference compound]	> 10	> 100																	
N#Cc1c(-c2ccc(F)cc2)cc(-c2ccc(F)cc2)c2c(N)ncnc12 [7g]	4.9 ± 0.2	> 100	93	82% and 87% and 122% and 80%	94	94% and 96% and 90%	79	73% and 94% and 71% and 79%	62	61% and 63% and 60% and 66%	10	efficient cellular uptake							
Nc1nc(O)c2ncn(COC(CO)CO)c2n1 [Ganciclovir, reference compound]	2.6 ± 0.5	> 100																	
N#Cc1c(-c2ccc(C(F)(F)F)cc2)cc(-c2ccc(C(F)(F)F)cc2)c2c(N)ncnc12 [7h]	4.6 ± 0.9	> 100	72	60% and 89% and 90% and 49%	71	80% and 75% and 61% and 68%	75	61% and 62% and 87% and 89%	58	58% and 67% and 50% and 57%	22	efficient cellular uptake	16% and 27% and 28%	7.3 ± 0.7					
CC1CCC2C(C)C(OC(=O)CCC(=O)OCCCNc3ncnc4c(C#N)c(-c5ccc(F)cc5)cc(-c5ccc(F)cc5)c34)OC3OC4(C)CCC1C32OO4 (stereo not shown) [compound 8]	0.6 ± 0.1	> 100	88	93% and 86% and 79%	73	80% and 78% and 68% and 66%	11	10% and 11% and 12%	7	7.61% and 6.36% and 6% and 7%				0.3	88	102% and 75% and 74%	90	89% and 86% and 90% and 94%	0.64
C[C@H]1[C@H](OC(=O)CCC(=O)O)O[C@@H]2O[C@@]3(C)CC[C@H]4[C@H](C)CC[C@@H]1[C@@]24OO3 [Artesunic acid, reference compound]	3.8 ± 0.4	82 ± 0.9																	
CC1CCC2C(C)C(OC(=O)CCC(=O)OCCCNc3ncnc4c(C#N)c(-c5ccc(C(F)(F)F)cc5)cc(-c5ccc(C(F)(F)F)cc5)c34)OC3OC4(C)CCC1C32OO4 (stereo not shown) [compound 9]	0.1	> 100	49	51% and 47% and 53% and 46%	1.06	0.952% and 0.865% and 1.31% and 1.1%	0.87	0.763% and 0.908% and 0.901%				efficient cellular uptake		0.3 ± 0.1	84	73% and 98% and 95% and 70%	81	84% and 89% and 73% and 77%	
COc1ccc(-c2cc(-c3ccc(OC)cc3)c3c(N)ncnc3c2C#N)cc1 [7i]	0.6 ± 0.1	> 100	83	89% and 80% and 75%	54	53% and 57%	38	39% and 42% and 35%	31	28% and 26% and 34% and 35%					82	85% and 84% and 78%	91	100% and 98% and 84%	0.56
Cc1ccc(-c2cc(-c3ccc(C)cc3)c3c(N)ncnc3c2C#N)cc1 [7b]	9.5 ± 4.8	> 100	87	98% and 91% and 76% and 82%	89	81% and 82% and 95% and 98%	62	65% and 63% and 64% and 56%	53	55% and 51% and 56%					89	90% and 87% and 92%	89	91% and 86% and 89% and 90%	
